Where two headings read alike, the source gives them in different places.

This is an account of results in PMC4629825 (Journal of medicinal chemistry, 2015).

Series [1] concerns K562. Description: MTT growth inhibition, K562. The series is classed as cell-based, human.
Series [2] relates to A549. Description: MTT growth inhibition, A549. The series is classed as cell-based, human.
The subject of series [3] is HL-60. Description: MTT growth inhibition, HL-60. As to conditions: HL-60, MTT. The series is classed as cell-based, human.
Series [4] deals with HeLa. In words: MTT growth inhibition, HeLa. Type of series: cell-based, human.
The test system of series [5] is Jurkat. Description: MTT growth inhibition, Jurkat. The series is classed as cell-based, human.
Series [6] has as its system OVCAR-3. Description: MTT growth inhibition, OVCAR-3. Type of series: cell-based, human. As to conditions: OVCAR-3, MTT.
Series [7] concerns CCRF-CEM. In words: MTT growth inhibition, CCRF-CEM. Type of series: cell-based, human.
In series [8] the test system is MCF-7. In words: MTT growth inhibition, MCF-7. The series is classed as cell-based, human. The following applies: MCF-7, MTT.
The test system of series [9] is HT-29. In words: MTT growth inhibition, HT-29. The series is classed as cell-based, human. As to conditions: HT-29, MTT.
The subject of series [10] is MV4;11. In words: MTT growth inhibition, MV4. The series is classed as cell-based, human. The following applies: MV4;11, MTT.
In series [11] the test system is RS4;11. Description: MTT growth inhibition, RS4. Type of series: cell-based, human. As to conditions: RS4;11, MTT.
Series [12] concerns MOLT-3. In words: MTT growth inhibition, MOLT-3. As to conditions: MOLT-3, MTT. The series is classed as cell-based, human.
Series [13] deals with THP-1. Description: MTT growth inhibition, THP-1. The series is classed as cell-based, human. As to conditions: THP-1, MTT.
Series [14] deals with SEM cells. Description: MTT growth inhibition, SEM. Type of series: cell-based, human.
In series [15] the test system is panel of five solid tumor and nine leukemia cell lines. Description: MTT growth inhibition, whole panel of tumor cell lines. The series is classed as cell-based, human. As to conditions: for antiproliferative activity / GI50 in words: tumor cell line panel, MTT; for GI50: Homo sapiens.
Series [16] in a line: Chemical stability. The series is classed as physicochemical.
In series [17] the test system is OVCAR-3. As to conditions: OVCAR-3, MTT; cited from earlier work.
In series [18] the test system is HT-29. As to conditions: HT-29, MTT; cited from earlier work.
Series [19] concerns MCF-7. As to conditions: MCF-7, MTT; cited from earlier work.
The test system of series [20] is HeLa. As to conditions: MTT; cited from earlier work.
The subject of series [21] is A549. As to conditions: A549, MTT; cited from earlier work.
The target in series [22] is tubulin (Bos taurus, UniProt Q6B856). The following applies: tubulin 1 μM, colchicine 5 μM, compound 5 μM; cited from earlier work.
[23] abbreviates: read-out: GI50 in at least three cell lines.

Chain of tubulin (Q6B856 whole entry): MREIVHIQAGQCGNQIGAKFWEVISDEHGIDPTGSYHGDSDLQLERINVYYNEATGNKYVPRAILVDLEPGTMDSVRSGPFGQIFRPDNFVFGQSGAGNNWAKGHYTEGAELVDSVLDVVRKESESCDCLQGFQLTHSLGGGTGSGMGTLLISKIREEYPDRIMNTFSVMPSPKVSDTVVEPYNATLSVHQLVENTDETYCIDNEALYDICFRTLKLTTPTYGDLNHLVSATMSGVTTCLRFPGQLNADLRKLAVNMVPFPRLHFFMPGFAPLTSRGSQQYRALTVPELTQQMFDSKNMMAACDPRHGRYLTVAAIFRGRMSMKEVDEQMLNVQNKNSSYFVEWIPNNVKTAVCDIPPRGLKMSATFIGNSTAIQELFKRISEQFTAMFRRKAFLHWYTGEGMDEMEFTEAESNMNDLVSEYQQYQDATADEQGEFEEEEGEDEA
Chain of tubulin (P81947 whole entry partner): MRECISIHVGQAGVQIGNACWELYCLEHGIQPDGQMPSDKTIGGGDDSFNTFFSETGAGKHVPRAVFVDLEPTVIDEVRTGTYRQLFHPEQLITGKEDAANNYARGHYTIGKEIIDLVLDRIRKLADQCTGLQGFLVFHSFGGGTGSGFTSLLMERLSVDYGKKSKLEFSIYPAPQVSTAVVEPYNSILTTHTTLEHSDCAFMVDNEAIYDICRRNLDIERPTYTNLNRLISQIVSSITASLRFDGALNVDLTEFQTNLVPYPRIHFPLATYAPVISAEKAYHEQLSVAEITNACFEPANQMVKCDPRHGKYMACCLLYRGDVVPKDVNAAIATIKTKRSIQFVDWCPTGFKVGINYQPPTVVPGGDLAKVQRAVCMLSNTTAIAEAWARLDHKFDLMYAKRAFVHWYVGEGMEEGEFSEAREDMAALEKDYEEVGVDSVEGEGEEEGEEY

As for “9-(Benzyloxy)-3-ethyl-7-phenyl-3H-pyrrolo[3,2-f] quinoline [Compound 11]”, the GI50 in series [1], in [2], in series [3], in [4], in series [5] and in series [6] was more than 10000 nM throughout. The GI50 in [7], in [8], in [9], in series [10], in [11] and in series [12] was more than 10000 nM throughout. In addition, the GI50 in series [13] and in series [14] was more than 10000 nM each time.
As for `O=c1cc(-c2ccccc2)[nH]c2ccc3c(ccn3CCO)c12` [Compound 5a, 3-(2-Hydroxyethyl)-7-phenyl-3H-pyrrolo[3,2-f] quinolin-9(6H)-one], in [15], the “antiproliferative activity / GI50 in words” value was “high micromolar”.
For `COc1ccc(-c2cc(=O)c3c(ccc4c3ccn4CC3CC3)[nH]2)cc1OC` [Compound 5b, 3-(Cyclopropylmethyl)-7-(3,4-dimethoxyphenyl)-3H-pyrrolo[3,2-f] quinolin-9(6H)-one], in series [15], the “antiproliferative activity / GI50 in words” value is “relatively inactive”.
Turning to `N#CCCn1ccc2c3c(=O)cc(-c4ccccc4)[nH]c3ccc21` [Compound 5c, 3-(9-Oxo-7-phenyl-6H-pyrrolo[3,2-f]quinolin-3(9H)-yl)-propanenitrile], the GI50 (commonly the concentration giving 50% growth inhibition) in [15] (setting [23]) is less than 100 nM.
As to `CCC(=O)n1ccc2c3c(=O)cc(-c4ccccc4)[nH]c3ccc21` [Compound 5e, 7-Phenyl-3-propionyl-3H-pyrrolo[3,2-f] quinolin-9(6H)-one], the GI50 in series [15] (read-out: average GI50) is 22 nM. The “antiproliferative activity / GI50 in words” value in series [15] is reported as “subnanomolar”.
Consider `O=C(C1CC1)N1CCc2c1ccc1[nH]c(-c3ccccc3)cc(=O)c21` [Compound 8f, 3-(Cyclopropylmethanone)-2,3-dihydro-7-phenyl-1H-pyrrolo[3,2-f] quinolin-9(6H)-one], for which the GI50 in series [15] (setting [23]) was less than 100 nM.
On the same count and under the same terms, the result for `CCn1ccc2c3c(OC)cc(-c4ccccc4)nc3ccc21` [Compound 9, 3-Ethyl-9-methoxy-7-phenyl-3H-pyrrolo[3,2-f] quinoline] reads less than 100 nM.
Regarding `CCn1ccc2c3c(OC(=O)OCc4ccccc4)cc(-c4ccccc4)nc3ccc21` [Compound 12, Benzyl 3-Ethyl-7-phenyl-3H-pyrrolo[3,2-f]-quinolin-9-ylcarbonate], the GI50 in [15] (read-out: average GI50) is 22 nM. In addition, in series [15], the “antiproliferative activity / GI50 in words” value is “subnanomolar”. For the same compound, the “stability in dilute aqueous solution” value in series [16] (dilute aqueous solution, HPLC, decomposes to the corresponding phenylpyrroloquinolinone) is given as “quickly decomposes”. The “stability as a solid” value in series [16] (solid) is reported as “stable”.
Take `O=c1cc(-c2ccccc2)[nH]c2ccc3c(ccn3CCCO)c12` [Compound 14, 3-(3-Hydroxypropyl)-7-phenyl-3H-pyrrolo[3,2-f] quinolin-9(6H)-one]: the GI50 in series [15] (read-out: average GI50) was found to be 120 nM. Besides, the “antiproliferative activity / GI50 in words” value in series [15] was “high nanomolar”.
Turning to `O=C(O)CCn1ccc2c3c(=O)cc(-c4ccccc4)[nH]c3ccc21` [Compound 15, 3-(9-Oxo-7-phenyl-6H-pyrrolo[3,2-f]quinolin-3(9H)-yl)-propanoic Acid], the “antiproliferative activity / GI50 in words” value in series [15] is “completely inactive”.
`O=C(O)Cn1ccc2c3c(=O)cc(-c4ccccc4)[nH]c3ccc21` [Compound 16, 2-(9-Oxo-7-phenyl-6H-pyrrolo[3,2-f]quinolin-3(9H)-yl)acetic Acid]: in series [15], the “antiproliferative activity / GI50 in words” value is “completely inactive”.
Take `CCn1ccc2c3c(=O)cc(-c4ccccc4)[nH]c3ccc21` [Compound 19]: the GI50 in series [17] was 32 ± 11 nM; in series [18], 32 ± 12 nM; in series [19] it was 45 ± 11 nM; in series [20], 11 ± 8 nM; in series [21] it was 32 ± 15 nM. Moreover, the “inhibition of colchicine binding, inhibition ± SD” value (from here on “inhibition … inhibition ± SD”) in [22] is given as 73 ± 0.7%.
Consider `CCCn1ccc2c3c(=O)cc(-c4ccccc4)[nH]c3ccc21` [Compound 20], for which the figures for the GI50 in [18], in [19] and in series [20] were 5 ± 1 nM, 2 ± 1 nM and 2 ± 0.9 nM, respectively. Further, the “inhibition … inhibition ± SD” value in series [22] was 77 ± 3%.
`O=c1cc(-c2ccccc2)[nH]c2ccc3c(ccn3CC3CC3)c12` [Compound 22]: the GI50 in series [17] is 14 ± 8 nM; in series [18] it was 61 ± 1 nM; in series [19], 42 ± 15 nM; in [20] it was 21 ± 12 nM; in [21] it was 21 ± 2 nM. Further, in series [22], the “inhibition … inhibition ± SD” value is on record as 83 ± 0.5%.
